These results are taken from article PMC9686568, “Novel Alligator Cathelicidin As-CATH8 Demonstrates Anti-Infective Activity against Clinically Relevant and Crocodylian Bacterial Pathogens” (Antibiotics, 2022).

In brackets after ≈: the same amount, converted by molar mass. Read-outs that look alike come from different tables or passages of the source. Residues, ends and D or L forms follow the SMILES beside them.

The term MIC denotes the lowest concentration found to suppress growth. A low value points to greater potency.

One series deals with P. vulgaris. The series is classed as cell-based, P. vulgaris HSC7200-T2. The note with it: microdilution in MHB, first concentration without visible growth, mode of at least three independent experiments. How it is done:
(§1) The following bacterial pathogens were used in this study: S. enterica subsp. enterica serovar Typhimurium ATCC 14028, E. coli O157:H7 [83], the clinical isolates S. aureus SAP0017 [84] and USA300 LAC [85], E. faecium #1-1 [85], A. baumannii Ab5075 [85] and E. cloacae 218R1 [85], as well as P. aeruginosa PAO1 [34], P. vulgaris HSC7200-T2 (Hancock Lab strain collection) and K. pneumoniae KPLN49 [85].
(§2) Overnight cultures were grown in LB at 37 °C with shaking at 250 rpm, except for E. faecium, which was grown in BHI medium.
(§3) The antimicrobial activity of the crocCATHs was evaluated with the broth microdilution method as described previously. MIC was defined as the first peptide or antibiotic concentration without visible bacterial growth. Reported values are the statistical mode of at least three independent experiments.

Another series has as its system S. aureus. Put plainly: MIC, broth microdilution in MHB. The series is classed as cell-based. The note with it: first concentration without visible growth, mode of at least three independent experiments. How it is done:
as §1, §2, §3
For orientation: In broth dilution the organism is exposed to a series of concentrations in liquid medium.

For another series, the system named is P. aeruginosa biofilm. The series is classed as cell-based, P. aeruginosa PAO1. How it is done:
(§4) Bacterial biofilm inhibition assays were performed using a microtiter assay as described by Haney et al.. For E. cloacae, E. coli, P. aeruginosa and S. Typhimurium, assays were performed using BM2 minimal medium (62 mM potassium phosphate, 7 mM ammonium sulfate, 0.5 mM magnesium sulfate, pH 7.0) supplemented with 0.4% glucose (w/v). Antibiofilm activity against A. baumannii and S. aureus SAP0017 was evaluated in 10% TSB (v/v) media supplemented with 0.1% glucose (w/v), whereas 10% THB (v/v) medium was employed for P. vulgaris.
(§5) Data from at least three independent experiments were analyzed as the percentage of biofilm mass compared to the untreated control. After crystal violet staining, MBIC95 was then calculated for each peptide, defined as the minimal peptide concentration capable of inhibiting mean biofilm growth by at least 95% compared to the untreated control.

The next series has as its system E. coli. The series is classed as cell-based, E. coli O157:H7. The note with it: microdilution in MHB, first concentration without visible growth, mode of at least three independent experiments. How it is done:
as §1, §2, §3

The subject of a further series is E. coli biofilm. The series is classed as cell-based, E. coli O157:H7. The note with it: BM2 minimal medium + 0.4% glucose, crystal violet, at least 95% inhibition of mean biofilm growth, at least three independent experiments. How it is done: as §4, §5
Another series relates to A. baumannii. Put plainly: MIC, broth microdilution in MHB. The following applies: first concentration without visible growth, mode of at least three independent experiments. The class given is cell-based, A. baumannii Ab5075. How it is done: as §1, §2, §3
For the next series, the system named is K. pneumoniae. Briefly: MIC, broth microdilution in MHB. The following applies: first concentration without visible growth, mode of at least three independent experiments. The series is classed as cell-based, K. pneumoniae KPLN49. How it is done: as §1, §2, §3
The test system of the next series is P. aeruginosa. Briefly: MIC, broth microdilution in MHB. The note with it: first concentration without visible growth, mode of at least three independent experiments. The class given is cell-based, P. aeruginosa PAO1. How it is done:
as §1, §2, §3

The next series relates to E. faecium. Put plainly: MIC, broth microdilution in MHB. The series is classed as cell-based, E. faecium #1-1. The note with it: first concentration without visible growth, mode of at least three independent experiments. How it is done: as §1, §2, §3
A further series relates to E. cloacae. The class given is cell-based, E. cloacae 218R1. How it is done:
as §1, §2, §3

In the next series the test system is S. Typhimurium. The class given is cell-based, S. enterica subsp. enterica serovar Typhimurium ATCC 14028. How it is done:
as §1, §2, §3

Series [1] has as its system peripheral blood mononuclear cells (PBMCs). Briefly: LDH release cytotoxicity assay. The series is classed as cell-based. The following applies: human PBMCs; at the highest concentrations tested (5 and 10 μM); relative to Triton X-100 control. How it is done:
Human PBMCs were isolated from human blood following the ethics protocols of the University of British Columbia, Canada. Consent was obtained from healthy volunteers before blood donation. Isolation and treatment of unstimulated PBMC was performed as previously described.
(§6) Peptide-induced cytotoxicity was assessed by measuring the extracellular activity of the LDH enzyme using the Cytotoxicity Detection Kit (MilliporeSigma, Burlington, MA, USA) as previously described. The percentage of LDH release relative to the untreated (negative) and Triton X-100 (positive, 100% cytotoxicity) control was assessed for at least three biological replicates and recorded as percent cytotoxicity.
In general terms: LDH in the medium is a marker of cell lysis.

The conditions of series [2]: subcutaneous, 15 mg/kg, peptide alone, uninfected animals. The text has this: The antibacterial capacities of As-CATH8 and Gg-CATH5 were further evaluated in the murine skin infection/abscess model. Mice were inoculated with clinical isolates of S. aureus and A. baumannii, two frequent causes of human skin infections. […] Therefore, the peptides were considered non-toxic at the doses used.

Series [3] deals with human bronchial epithelial (HBE) cells. Briefly: LDH release cytotoxicity assay. The series is classed as cell-based. The following applies: HBE cells (16HBE14o-); at the highest concentrations tested (5 and 10 μM); relative to Triton X-100 control. How it is done: Immortalized human bronchial epithelial (HBE) cells (16HBE14o-) were used for in vitro cytotoxicity experiments as described elsewhere.
as §6

For the compound `CC(C)C[C@H](NC(=O)[C@H](C)NC(=O)[C@@H](NC(=O)[C@H](CC(N)=O)NC(=O)[C@H](CCCNC(=N)N)NC(=O)CNC(=O)[C@@H](NC(=O)[C@H](CCCCN)NC(=O)[C@H](CCCNC(=N)N)NC(=O)[C@H](Cc1c[nH]c2ccccc12)NC(=O)[C@H](CC(N)=O)NC(=O)[C@@H](NC(=O)[C@H](CCCNC(=N)N)NC(=O)[C@@H](N)CCCCN)C(C)C)C(C)C)[C@@H](C)O)C(=O)NCC(=O)N[C@@H](C)C(=O)N[C@@H](CO)C(=O)N[C@@H](Cc1ccc(O)cc1)C(=O)N[C@H](C(=O)N[C@@H](CC(C)C)C(=O)N[C@@H](CO)C(=O)N[C@@H](Cc1ccccc1)C(=O)N[C@@H](CC(C)C)C(=O)NCC(=O)O)C(C)C` [As-CATH7] (H-KRVNWRKVGRNTALGASYVLSFLG-OH), the minimal inhibitory concentration (MIC) was over 64 µM against P. vulgaris; 4 µM (≈ 10.8 µg/mL) with S. aureus; 2 µM (≈ 5.39 µg/mL) in the series on E. coli; 0.25 µM (≈ 0.673 µg/mL) with A. baumannii; 1 µM (≈ 2.69 µg/mL) with K. pneumoniae; 4 µM (≈ 10.8 µg/mL) with P. aeruginosa. The MIC in the series with E. faecium is over 64 µM; with E. cloacae, 0.5 µM (≈ 1.35 µg/mL); against S. Typhimurium, 2 µM. Moreover, the MBIC95 in the series on P. aeruginosa biofilm was over 172 µg/mL; in the series on E. coli biofilm it was 32 µM.

`CC[C@H](C)[C@H](NC(=O)[C@H](Cc1ccc(O)cc1)NC(=O)[C@@H]1CCCN1C(=O)[C@H](CC(C)C)NC(=O)[C@H](CC(C)C)NC(=O)[C@H](CCCCN)NC(=O)[C@H](CC(C)C)NC(=O)[C@H](C)NC(=O)[C@@H](NC(=O)[C@H](CCCNC(=N)N)NC(=O)CNC(=O)[C@@H](NC(=O)[C@H](CCCCN)NC(=O)[C@H](C)NC(=O)[C@H](Cc1c[nH]c2ccccc12)NC(=O)[C@H](CC(N)=O)NC(=O)[C@@H](NC(=O)[C@H](CCCNC(=N)N)NC(=O)[C@@H](N)CCCCN)C(C)C)C(C)C)[C@@H](C)O)C(=O)N[C@@H](Cc1ccccc1)C(=O)NCC(=O)O` [As-CATH8] (H-KRVNWAKVGRTALKLLPYIFG-OH): the MIC with P. vulgaris amounted to 4 µM (≈ 9.72 µg/mL); in the series on S. aureus, 0.5 µM (≈ 1.22 µg/mL); in the series with E. coli it was 1 µM (≈ 2.43 µg/mL); against A. baumannii, 0.25 µM (≈ 0.608 µg/mL); in the series with K. pneumoniae, 0.5 µM (≈ 1.22 µg/mL); in the series with P. aeruginosa, 1 µM (≈ 2.43 µg/mL). In addition, the MIC against E. faecium was over 64 µM; in the series with E. cloacae, 0.5 µM (≈ 1.22 µg/mL); in the series on S. Typhimurium it was 1 µM. The MBIC95 in the series on E. coli biofilm is 1 µM.

Consider `CC[C@H](C)[C@H](NC(=O)[C@H](C)NC(=O)CNC(=O)[C@H](CC(N)=O)NC(=O)[C@H](CC(C)C)NC(=O)[C@@H](NC(=O)[C@H](CCCCN)NC(=O)[C@H](CCCCN)NC(=O)[C@H](Cc1c[nH]c2ccccc12)NC(=O)[C@H](Cc1c[nH]c2ccccc12)NC(=O)[C@H](CCCCN)NC(=O)[C@H](CCCNC(=N)N)NC(=O)[C@H](CCCNC(=N)N)NC(=O)[C@@H](N)[C@@H](C)O)C(C)C)C(=O)N[C@@H](CCCCN)C(=O)N[C@H](C(=O)N[C@@H](C)C(=O)N1CCC[C@H]1C(=O)N[C@@H](Cc1ccc(O)cc1)C(=O)N[C@H](C(=O)N[C@@H](CC(C)C)C(=O)N[C@@H](CC(=O)O)C(=O)O)[C@@H](C)CC)[C@@H](C)CC` [Gg-CATH5] (H-TRRKWWKKVLNGAIKIAPYILD-OH), for which the MIC in the series with P. vulgaris amounted to 8 µM (≈ 21.4 µg/mL); against S. aureus it was 1 µM (≈ 2.67 µg/mL); against E. coli, 4 µM (≈ 10.7 µg/mL); in the series with A. baumannii it was 0.5 µM (≈ 1.34 µg/mL); against K. pneumoniae, 0.5 µM (≈ 1.34 µg/mL); with P. aeruginosa, 1 µM (≈ 2.67 µg/mL). Moreover, in the series with E. faecium, the minimal inhibitory concentration (MIC) was over 64 µM. The MBIC95 with E. coli biofilm worked out at 32 µM.

`CSCC[C@H](NC(=O)[C@@H](NC(=O)[C@H](Cc1ccc(O)cc1)NC(=O)[C@H](CO)NC(=O)[C@H](C)NC(=O)CNC(=O)[C@H](CC(C)C)NC(=O)CNC(=O)[C@@H](NC(=O)[C@H](CCCCN)NC(=O)[C@H](CCCNC(=N)N)NC(=O)[C@H](Cc1c[nH]c2ccccc12)NC(=O)[C@H](CC(N)=O)NC(=O)[C@@H](NC(=O)[C@H](CCCNC(=N)N)NC(=O)[C@@H](N)CCCCN)C(C)C)C(C)C)C(C)C)C(=O)N[C@@H](CO)C(=O)N[C@@H](Cc1c[nH]c2ccccc12)C(=O)N[C@@H](CC(C)C)C(=O)NCC(=O)O` [Gg-CATH7] (H-KRVNWRKVGLGASYVMSWLG-OH): the MBIC95 with P. aeruginosa biofilm is recorded as over 148 µg/mL. Also, the MIC came out at 2 µM (≈ 4.62 µg/mL) against E. cloacae and 4 µM in the series with S. Typhimurium.

Consider `CC[C@H](C)[C@H](NC(=O)[C@H](CCCCN)NC(=O)[C@H](CCC(=O)O)NC(=O)[C@H](CCCCN)NC(=O)[C@H](CO)NC(=O)[C@H](CCCCN)NC(=O)[C@H](CCCNC(=N)N)NC(=O)[C@H](Cc1ccccc1)NC(=O)[C@H](Cc1ccccc1)NC(=O)[C@H](CC(=O)O)NC(=O)CNC(=O)[C@H](CC(C)C)NC(=O)[C@@H](N)CC(C)C)C(=O)NCC(=O)N[C@@H](CCCCN)C(=O)N[C@@H](CCC(=O)O)C(=O)N[C@@H](Cc1ccccc1)C(=O)N[C@@H](CCCCN)C(=O)N[C@@H](CCCNC(=N)N)C(=O)N[C@H](C(=O)N[C@H](C(=O)N[C@@H](CCC(N)=O)C(=O)N[C@@H](CCCNC(=N)N)C(=O)N[C@H](C(=O)N[C@@H](CCCCN)C(=O)N[C@@H](CC(=O)O)C(=O)N[C@@H](Cc1ccccc1)C(=O)N[C@@H](CC(C)C)C(=O)N[C@@H](CCCNC(=N)N)C(=O)N[C@@H](CC(N)=O)C(=O)N[C@@H](CC(C)C)C(=O)N[C@H](C(=O)N1CCC[C@H]1C(=O)N[C@@H](CCCNC(=N)N)C(=O)N[C@H](C(=O)N[C@@H](CCC(=O)O)C(=O)N[C@@H](CO)C(=O)O)[C@@H](C)O)C(C)C)[C@@H](C)CC)C(C)C)[C@@H](C)CC` [LL-37], for which the “Cytotoxicity (LDH release)” value in [1] and in [3] was “moderately cytotoxic” in each case. For the same compound, in [2], the “Tissue damage or peptide precipitation at the site of injection” value was “no evidence of tissue damage or peptide precipitation”. Besides, the MIC in the series with S. Typhimurium (S. Typhimurium, microdilution in MHB, value in brackets of Table S4) is given as 72 µg/mL.

“VRLIVAVRIWRR-NH2 [IDR-1018, immunomodulatory peptide used as control]”: the “Cytotoxicity (LDH release)” value in series [1] and in series [3] was “low cytotoxicity” each time.
